In ChEMBL document CHEMBL1148604 (J Med Chem, 2006):
≈ marks a conversion by molar mass, not a printed value. Calls of active or inactive are those of the source. No cut-off for these calls is given here.

Test system: Mycobacterium tuberculosis
Experiment: Inhibitory activity against Mycobacterium tuberculosis H37Rv
Assay type: functional

| SMILES | MIC [µM] |
| --- | --- |
| C=CCCCCC1(C)SC(=O)C(C)=C1O (centres undefined) | 1000 (≈ 226 µg/mL) |
| CC1=C(O)C(C)(Cc2ccc(Cl)cc2Cl)SC1=O (centres undefined) | 500 (≈ 152 µg/mL) |
| CC1=C(O)C(C)(Cc2ccc(Cl)c(Cl)c2)SC1=O (centres undefined) | 500 (≈ 152 µg/mL) |
| CC(C)=CCC1(C)SC(O)=C(C)C1=O (centres undefined) | > 1000 |
| CC1=C(O)C(C)(CC2CC2)SC1=O (centres undefined) | > 1000 |
| CC[C@H](C)CC1(C)SC(O)=C(C)C1=O (some centres undefined) | 500 (≈ 107 µg/mL) |
| CC1=C(O)C(C)(C2CCCCC2)SC1=O (centres undefined) | 1000 (≈ 226 µg/mL) |
| C/C=C/C(C)=C/[C@@]1(C)SC(O)=C(C)C1=O | 1000 (≈ 224 µg/mL) |
| CC/C(C)=C/[C@@]1(C)SC(O)=C(C)C1=O | > 1000 |

Molecular target: wild-type apo-KasA (Mycobacterium tuberculosis, UniProt P9WQD9)
Experiment: Inhibitory activity against KasA from Mycobacterium tuberculosis H37Rv

| SMILES | IC50 [µM] |
| --- | --- |
| C=CCCCCC1(C)SC(=O)C(C)=C1O (centres undefined) | > 100 |
| CC(C)=CCC1(C)SC(O)=C(C)C1=O (centres undefined) | > 100 |
| C/C=C/C(C)=C/[C@@]1(C)SC(O)=C(C)C1=O | 50 |

Molecular target: T1, 3-oxoacyl-[acyl-carrier-protein] synthase 3 (Escherichia coli, UniProt C3TDZ2)
T1 sequence (C3TDZ2 whole entry): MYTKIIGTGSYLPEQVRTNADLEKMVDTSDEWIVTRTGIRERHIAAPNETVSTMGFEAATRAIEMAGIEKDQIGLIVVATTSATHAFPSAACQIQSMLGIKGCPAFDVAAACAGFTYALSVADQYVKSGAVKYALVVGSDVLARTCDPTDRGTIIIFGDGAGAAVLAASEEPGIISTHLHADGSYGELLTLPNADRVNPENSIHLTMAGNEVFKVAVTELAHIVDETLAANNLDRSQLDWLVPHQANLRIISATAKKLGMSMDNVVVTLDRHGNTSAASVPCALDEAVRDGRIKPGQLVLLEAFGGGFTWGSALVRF
Experiment: Inhibitory activity against FabH from Escherichia coli ANSI

| SMILES | IC50 [µM] |
| --- | --- |
| CC1=C(O)C(C)(Cc2ccc(Cl)c(Cl)c2)SC1=O (centres undefined) | > 100 |
| CC1=C(O)C(C)(CC2CC2)SC1=O (centres undefined) | > 100 |
| CC[C@H](C)CC1(C)SC(O)=C(C)C1=O (some centres undefined) | > 100 |

Molecular target: Fatty acid synthase (Homo sapiens, UniProt P49327)
Experiment: Inhibitory activity against human FAS1 at 100 uM

Chain of Fatty acid synthase (P49327 whole entry, looked up): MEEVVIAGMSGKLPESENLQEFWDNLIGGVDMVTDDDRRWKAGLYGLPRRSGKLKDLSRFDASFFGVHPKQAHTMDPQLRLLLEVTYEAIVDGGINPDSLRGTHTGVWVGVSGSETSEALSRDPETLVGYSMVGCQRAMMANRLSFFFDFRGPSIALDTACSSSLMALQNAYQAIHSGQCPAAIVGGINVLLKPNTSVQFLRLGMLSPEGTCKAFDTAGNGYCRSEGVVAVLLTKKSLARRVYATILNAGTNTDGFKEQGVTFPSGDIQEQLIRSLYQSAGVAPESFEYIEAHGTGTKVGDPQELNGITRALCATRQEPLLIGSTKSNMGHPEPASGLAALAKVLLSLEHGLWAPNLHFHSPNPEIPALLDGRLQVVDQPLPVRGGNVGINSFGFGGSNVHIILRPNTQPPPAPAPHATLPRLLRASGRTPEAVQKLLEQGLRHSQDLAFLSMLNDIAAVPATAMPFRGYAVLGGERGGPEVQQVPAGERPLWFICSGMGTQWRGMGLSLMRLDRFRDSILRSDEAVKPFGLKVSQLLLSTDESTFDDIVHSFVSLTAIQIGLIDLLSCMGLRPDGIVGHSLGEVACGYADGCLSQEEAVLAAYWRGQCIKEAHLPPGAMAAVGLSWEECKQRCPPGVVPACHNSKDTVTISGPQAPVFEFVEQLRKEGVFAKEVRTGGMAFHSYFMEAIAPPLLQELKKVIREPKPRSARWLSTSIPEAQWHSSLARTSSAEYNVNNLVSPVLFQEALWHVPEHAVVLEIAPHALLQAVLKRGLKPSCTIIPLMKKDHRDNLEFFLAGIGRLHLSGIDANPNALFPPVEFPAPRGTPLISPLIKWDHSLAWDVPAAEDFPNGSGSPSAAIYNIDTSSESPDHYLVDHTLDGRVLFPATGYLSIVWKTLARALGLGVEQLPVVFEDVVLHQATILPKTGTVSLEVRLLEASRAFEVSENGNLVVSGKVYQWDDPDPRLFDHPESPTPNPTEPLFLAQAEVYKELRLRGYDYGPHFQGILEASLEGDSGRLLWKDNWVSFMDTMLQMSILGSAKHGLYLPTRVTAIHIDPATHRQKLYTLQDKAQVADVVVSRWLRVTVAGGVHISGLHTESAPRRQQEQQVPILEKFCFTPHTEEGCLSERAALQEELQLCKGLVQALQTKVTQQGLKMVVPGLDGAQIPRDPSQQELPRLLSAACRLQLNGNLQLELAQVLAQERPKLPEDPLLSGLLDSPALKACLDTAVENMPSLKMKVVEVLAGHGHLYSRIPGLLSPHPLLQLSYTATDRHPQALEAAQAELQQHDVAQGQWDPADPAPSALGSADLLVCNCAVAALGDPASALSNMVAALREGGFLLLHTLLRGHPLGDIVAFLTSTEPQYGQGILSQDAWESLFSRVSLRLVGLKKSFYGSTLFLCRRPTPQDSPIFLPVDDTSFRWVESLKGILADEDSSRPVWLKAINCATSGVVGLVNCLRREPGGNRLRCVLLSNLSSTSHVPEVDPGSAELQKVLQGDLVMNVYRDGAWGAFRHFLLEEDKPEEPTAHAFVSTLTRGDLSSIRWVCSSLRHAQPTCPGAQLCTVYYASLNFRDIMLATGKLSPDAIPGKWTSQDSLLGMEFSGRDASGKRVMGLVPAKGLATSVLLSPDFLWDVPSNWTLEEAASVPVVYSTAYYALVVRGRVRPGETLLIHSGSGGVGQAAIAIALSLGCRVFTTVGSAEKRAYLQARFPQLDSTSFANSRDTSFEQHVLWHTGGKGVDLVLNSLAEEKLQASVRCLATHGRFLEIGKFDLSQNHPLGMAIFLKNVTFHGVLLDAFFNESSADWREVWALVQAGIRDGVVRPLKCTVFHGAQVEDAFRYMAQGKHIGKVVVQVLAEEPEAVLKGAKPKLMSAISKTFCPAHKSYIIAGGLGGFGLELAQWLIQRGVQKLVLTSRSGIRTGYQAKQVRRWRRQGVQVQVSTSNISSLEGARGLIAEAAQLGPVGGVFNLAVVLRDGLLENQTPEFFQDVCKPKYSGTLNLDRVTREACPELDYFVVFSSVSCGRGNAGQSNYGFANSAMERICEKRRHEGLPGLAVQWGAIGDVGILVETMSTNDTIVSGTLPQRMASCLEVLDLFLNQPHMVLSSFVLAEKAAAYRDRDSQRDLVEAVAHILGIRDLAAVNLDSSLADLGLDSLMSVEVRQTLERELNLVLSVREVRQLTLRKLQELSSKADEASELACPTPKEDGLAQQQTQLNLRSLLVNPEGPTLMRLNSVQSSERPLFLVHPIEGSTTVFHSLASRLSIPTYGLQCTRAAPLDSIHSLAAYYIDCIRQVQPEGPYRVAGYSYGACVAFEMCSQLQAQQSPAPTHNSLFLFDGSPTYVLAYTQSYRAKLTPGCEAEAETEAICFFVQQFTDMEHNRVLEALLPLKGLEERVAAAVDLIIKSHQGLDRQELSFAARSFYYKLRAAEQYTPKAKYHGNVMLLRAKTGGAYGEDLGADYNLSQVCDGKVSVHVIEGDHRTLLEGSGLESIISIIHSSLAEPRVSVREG

| SMILES | inhibition |
| --- | --- |
| C/C=C/C(C)=C/[C@@]1(C)SC(O)=C(C)C1=O | inactive |
| CC/C(C)=C/[C@@]1(C)SC(O)=C(C)C1=O | inactive |

Molecular target: T2, 3-oxoacyl-[acyl-carrier-protein] synthase 2 (Mycobacterium tuberculosis) (UniProt P9WQD7)
T2 sequence (whole entry): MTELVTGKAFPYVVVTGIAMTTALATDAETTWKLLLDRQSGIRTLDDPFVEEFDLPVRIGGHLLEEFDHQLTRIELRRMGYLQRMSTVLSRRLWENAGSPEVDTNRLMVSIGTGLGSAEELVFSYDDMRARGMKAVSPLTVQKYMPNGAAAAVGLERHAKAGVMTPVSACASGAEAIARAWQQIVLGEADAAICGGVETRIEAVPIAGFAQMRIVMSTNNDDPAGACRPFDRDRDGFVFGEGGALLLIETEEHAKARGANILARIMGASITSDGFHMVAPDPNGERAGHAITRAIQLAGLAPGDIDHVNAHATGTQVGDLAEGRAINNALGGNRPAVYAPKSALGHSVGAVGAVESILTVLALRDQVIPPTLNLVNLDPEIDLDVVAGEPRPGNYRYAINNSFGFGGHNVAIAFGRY
Experiment: Inhibitory activity against KasB from Mycobacterium tuberculosis H37Rv at 100 uM

| SMILES | inhibition |
| --- | --- |
| C=CCCCCC1(C)SC(=O)C(C)=C1O (centres undefined) | inactive |
| CC1=C(O)C(C)(Cc2ccc(Cl)cc2Cl)SC1=O (centres undefined) | inactive |
| CC1=C(O)C(C)(Cc2ccc(Cl)c(Cl)c2)SC1=O (centres undefined) | inactive |
| CC(C)=CCC1(C)SC(O)=C(C)C1=O (centres undefined) | inactive |
| CC1=C(O)C(C)(CC2CC2)SC1=O (centres undefined) | inactive |
| CC[C@H](C)CC1(C)SC(O)=C(C)C1=O (some centres undefined) | inactive |
| CC1=C(O)C(C)(C2CCCCC2)SC1=O (centres undefined) | inactive |
| CC/C(C)=C/[C@@]1(C)SC(O)=C(C)C1=O | inactive |

Molecular target: T3, 3-oxoacyl-[acyl-carrier-protein] synthase 1 (Escherichia coli K-12) (UniProt P0A953)
T3 sequence (whole entry): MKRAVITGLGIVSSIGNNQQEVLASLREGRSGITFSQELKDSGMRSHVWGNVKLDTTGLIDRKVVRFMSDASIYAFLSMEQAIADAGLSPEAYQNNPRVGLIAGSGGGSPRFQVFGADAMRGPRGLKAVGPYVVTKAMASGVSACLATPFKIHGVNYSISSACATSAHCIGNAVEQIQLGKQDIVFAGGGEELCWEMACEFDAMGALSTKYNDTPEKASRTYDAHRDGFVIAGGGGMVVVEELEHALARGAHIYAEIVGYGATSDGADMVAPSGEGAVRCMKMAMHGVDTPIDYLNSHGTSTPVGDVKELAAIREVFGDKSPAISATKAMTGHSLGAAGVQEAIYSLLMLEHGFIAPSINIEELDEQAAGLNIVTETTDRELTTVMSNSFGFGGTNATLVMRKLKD
Experiment: Inhibitory activity against FabB from Escherichia coli ANSI at 100 uM

| SMILES | inhibition |
| --- | --- |
| C=CCCCCC1(C)SC(=O)C(C)=C1O (centres undefined) | inactive |
| CC1=C(O)C(C)(Cc2ccc(Cl)cc2Cl)SC1=O (centres undefined) | inactive |
| CC1=C(O)C(C)(Cc2ccc(Cl)c(Cl)c2)SC1=O (centres undefined) | inactive |
| CC(C)=CCC1(C)SC(O)=C(C)C1=O (centres undefined) | inactive |
| CC1=C(O)C(C)(CC2CC2)SC1=O (centres undefined) | inactive |
| CC[C@H](C)CC1(C)SC(O)=C(C)C1=O (some centres undefined) | inactive |
| CC1=C(O)C(C)(C2CCCCC2)SC1=O (centres undefined) | inactive |
| CC/C(C)=C/[C@@]1(C)SC(O)=C(C)C1=O | inactive |

Molecular target: T4, 3-oxoacyl-[acyl-carrier-protein] synthase 1 (Mycobacterium tuberculosis) (UniProt P9WQD9)
T4 sequence (whole entry): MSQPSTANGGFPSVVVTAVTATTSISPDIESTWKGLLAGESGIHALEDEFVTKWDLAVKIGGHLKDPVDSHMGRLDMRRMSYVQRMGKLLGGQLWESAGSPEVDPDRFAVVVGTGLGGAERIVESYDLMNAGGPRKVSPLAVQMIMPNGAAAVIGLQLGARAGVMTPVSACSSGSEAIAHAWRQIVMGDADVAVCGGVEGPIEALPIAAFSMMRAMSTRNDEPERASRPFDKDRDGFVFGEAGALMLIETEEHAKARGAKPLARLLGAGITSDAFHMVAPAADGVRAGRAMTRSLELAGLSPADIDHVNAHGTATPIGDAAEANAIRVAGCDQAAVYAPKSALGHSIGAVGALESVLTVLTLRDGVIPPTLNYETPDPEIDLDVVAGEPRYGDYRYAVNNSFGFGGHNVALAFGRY
Experiment: Inhibitory activity against KasA from Mycobacterium tuberculosis H37Rv at 100 uM

| SMILES | inhibition |
| --- | --- |
| C=CCCCCC1(C)SC(=O)C(C)=C1O (centres undefined) | < 30% |
| CC1=C(O)C(C)(Cc2ccc(Cl)cc2Cl)SC1=O (centres undefined) | inactive |
| CC1=C(O)C(C)(Cc2ccc(Cl)c(Cl)c2)SC1=O (centres undefined) | inactive |
| CC(C)=CCC1(C)SC(O)=C(C)C1=O (centres undefined) | < 30% |
| CC1=C(O)C(C)(CC2CC2)SC1=O (centres undefined) | inactive |
| CC[C@H](C)CC1(C)SC(O)=C(C)C1=O (some centres undefined) | inactive |
| CC1=C(O)C(C)(C2CCCCC2)SC1=O (centres undefined) | inactive |
| CC/C(C)=C/[C@@]1(C)SC(O)=C(C)C1=O | inactive |

Molecular target: T5, Mycobacterial beta-ketoacyl-[acyl-carrier-protein] synthase III (Mycobacterium tuberculosis, UniProt P9WNG3)
T5 sequence (P9WNG3 whole entry): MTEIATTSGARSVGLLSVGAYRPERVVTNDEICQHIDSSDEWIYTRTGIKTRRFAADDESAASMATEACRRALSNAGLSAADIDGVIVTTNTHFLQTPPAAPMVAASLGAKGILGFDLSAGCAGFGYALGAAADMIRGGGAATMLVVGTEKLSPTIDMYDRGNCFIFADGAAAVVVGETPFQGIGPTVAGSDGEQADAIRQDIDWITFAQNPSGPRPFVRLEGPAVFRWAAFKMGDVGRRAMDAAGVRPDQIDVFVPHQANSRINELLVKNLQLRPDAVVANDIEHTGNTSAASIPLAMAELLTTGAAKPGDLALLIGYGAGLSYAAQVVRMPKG
Experiment: Inhibitory activity against FabH from Mycobacterium tuberculosis H37Rv

| SMILES | IC50 [µM] |
| --- | --- |
| CC1=C(O)C(C)(Cc2ccc(Cl)cc2Cl)SC1=O (centres undefined) | > 100 |
| CC1=C(O)C(C)(Cc2ccc(Cl)c(Cl)c2)SC1=O (centres undefined) | > 100 |
| CC1=C(O)C(C)(C2CCCCC2)SC1=O (centres undefined) | > 100 |

Molecular target: T6, 3-oxoacyl-[acyl-carrier-protein] synthase 2 (Mycobacterium tuberculosis, UniProt P9WQD7)
T6 sequence (P9WQD7 whole entry): T2 sequence (whole entry)
Experiment: Inhibitory activity against KasB from Mycobacterium tuberculosis H37Rv

| SMILES | IC50 [µM] |
| --- | --- |
| C/C=C/C(C)=C/[C@@]1(C)SC(O)=C(C)C1=O | 400 |

Molecular target: T7, 3-oxoacyl-[acyl-carrier-protein] synthase 1 (Escherichia coli K-12, UniProt P0A953)
T7 sequence (P0A953 whole entry): T3 sequence (whole entry)
Experiment: Inhibitory activity against FabB from Escherichia coli ANSI

| SMILES | IC50 [µM] |
| --- | --- |
| C/C=C/C(C)=C/[C@@]1(C)SC(O)=C(C)C1=O | 500 |

Molecular target: T8, Mycobacterial beta-ketoacyl-[acyl-carrier-protein] synthase III (Mycobacterium tuberculosis) (UniProt P9WNG3)
T8 sequence (whole entry): T5 sequence (P9WNG3 whole entry)
Experiment: Inhibitory activity against FabH from Mycobacterium tuberculosis H37Rv at 100 uM

| SMILES | inhibition |
| --- | --- |
| C=CCCCCC1(C)SC(=O)C(C)=C1O (centres undefined) | inactive |
| CC1=C(O)C(C)(Cc2ccc(Cl)cc2Cl)SC1=O (centres undefined) | < 30% |
| CC1=C(O)C(C)(Cc2ccc(Cl)c(Cl)c2)SC1=O (centres undefined) | < 30% |
| CC(C)=CCC1(C)SC(O)=C(C)C1=O (centres undefined) | inactive |
| CC1=C(O)C(C)(CC2CC2)SC1=O (centres undefined) | inactive |
| CC[C@H](C)CC1(C)SC(O)=C(C)C1=O (some centres undefined) | inactive |
| CC1=C(O)C(C)(C2CCCCC2)SC1=O (centres undefined) | < 30% |

Test system: Escherichia coli
Experiment: Inhibitory activity against Escherichia coli ANSI
Assay type: functional

| SMILES | MIC [µM] |
| --- | --- |
| C=CCCCCC1(C)SC(=O)C(C)=C1O (centres undefined) | > 1000 |
| CC1=C(O)C(C)(Cc2ccc(Cl)cc2Cl)SC1=O (centres undefined) | 150 (≈ 45.5 µg/mL) |
| CC1=C(O)C(C)(Cc2ccc(Cl)c(Cl)c2)SC1=O (centres undefined) | > 1000 |
| CC(C)=CCC1(C)SC(O)=C(C)C1=O (centres undefined) | > 1000 |
| CC1=C(O)C(C)(CC2CC2)SC1=O (centres undefined) | > 1000 |
| CC[C@H](C)CC1(C)SC(O)=C(C)C1=O (some centres undefined) | > 1000 |
| CC1=C(O)C(C)(C2CCCCC2)SC1=O (centres undefined) | > 1000 |
| C/C=C/C(C)=C/[C@@]1(C)SC(O)=C(C)C1=O | 200 (≈ 44.9 µg/mL) |
| CC/C(C)=C/[C@@]1(C)SC(O)=C(C)C1=O | > 200 |

Molecular target: T9, 3-oxoacyl-[acyl-carrier-protein] synthase 3 (Escherichia coli) (UniProt C3TDZ2)
T9 sequence (whole entry): T1 sequence (C3TDZ2 whole entry)
Experiment: Inhibitory activity against FabH from Escherichia coli ANSI at 100 uM

| SMILES | inhibition |
| --- | --- |
| C=CCCCCC1(C)SC(=O)C(C)=C1O (centres undefined) | inactive |
| CC1=C(O)C(C)(Cc2ccc(Cl)cc2Cl)SC1=O (centres undefined) | inactive |
| CC1=C(O)C(C)(Cc2ccc(Cl)c(Cl)c2)SC1=O (centres undefined) | < 30% |
| CC(C)=CCC1(C)SC(O)=C(C)C1=O (centres undefined) | inactive |
| CC1=C(O)C(C)(CC2CC2)SC1=O (centres undefined) | < 30% |
| CC[C@H](C)CC1(C)SC(O)=C(C)C1=O (some centres undefined) | < 30% |
| CC1=C(O)C(C)(C2CCCCC2)SC1=O (centres undefined) | inactive |
